PubChem BioAssay (NCI)
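Where inhibition never reached the appropriate level, the endpoint shown equals the highest concentration tested. Otherwise, values were interpolated linearly from a five-concentration, 48-hour dose response in 96-well plates. GI50: concentration for 50% inhibition of growth. TGI is the concentration that stops growth completely.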

Columns and labels:
Experiment in all cases: DTP human tumour cell line panel, 48 h
[1] = test system: 786-0 renal
[2] = test system: HCT-116 colon
[3] = test system: HCC-2998 colon
[4] = test system: SNB-19 CNS
[5] = test system: HL-60(TB) leukemia
[6] = test system: DU-145 prostate
[7] = test system: HT29 colon
[8] = test system: U251 CNS
[9] = test system: SF-268 CNS
[10] = test system: A498 renal
[11] = test system: CAKI-1 renal
[12] = test system: SK-MEL-5 melanoma
[13] = test system: OVCAR-4 ovarian
[14] = test system: HOP-92 NSCLC
[15] = test system: NCI-H226 lung
[16] = test system: SK-OV-3 ovarian
[17] = test system: RPMI-8226 leukemia
[18] = test system: HCT-15 colon
[19] = test system: M14 melanoma
[20] = test system: MALME-3M melanoma
[21] = test system: ACHN renal
[22] = test system: UACC-257 melanoma
[23] = test system: MDA-MB-435
[24] = test system: OVCAR-5 ovarian
[25] = test system: HS 578T breast
[26] = test system: CCRF-CEM leukemia
[27] = test system: COLO 205 colon
[28] = test system: MDA-MB-468 breast
[29] = test system: SF-539 CNS
[30] = test system: SN12C renal
[31] = test system: NCI-H522 lung
[32] = test system: SK-MEL-2 melanoma
[33] = test system: MOLT-4 leukemia
[34] = test system: UACC-62 melanoma
[35] = test system: PC-3 prostate
[36] = test system: SR leukemia
[37] = test system: K-562 leukemia
[38] = test system: SK-MEL-28 melanoma
[39] = test system: UO-31 renal
[40] = test system: LOX IMVI melanoma
[41] = test system: MDA-MB-231 breast
[42] = test system: TK-10 renal
[43] = test system: SNB-75 CNS
[44] = test system: IGROV1 ovarian
[45] = test system: A549 NSCLC

## Cn1cc(-c2cc3nc(-c4c[nH]c5ccc(Br)cc45)cc(N)n3n2)c2ccccc21
[1]
  GI50: 1.6 µM
  TGI: 3.27 µM
[2]
  GI50: 3 µM
  TGI: > 100 µM
[3]
  GI50: 1.79 µM
  TGI: 3.26 µM
[4]
  GI50: 1.67 µM
  TGI: 3.09 µM
[5]
  GI50: 1.84 µM
  TGI: 4.34 µM
[6]
  GI50: 1.92 µM
  TGI: 3.75 µM
[7]
  GI50: 1.66 µM
  TGI: 3.08 µM
[8]
  GI50: 1.72 µM
  TGI: 3.27 µM
[9]
  GI50: 1.89 µM
  TGI: 4.43 µM
[10]
  GI50: 1.67 µM
  TGI: 3.34 µM
[11]
  GI50: 1.5 µM
  TGI: 3.06 µM
[12]
  GI50: 1.71 µM
  TGI: 3.15 µM
[13]
  GI50: 1.71 µM
  TGI: 3.49 µM
[14]
  GI50: 1.51 µM
  TGI: 3.08 µM
[15]
  GI50: 1.96 µM
  TGI: 5.07 µM
[16]
  GI50: 1.98 µM
  TGI: 4.03 µM
[17]
  GI50: 2.73 µM
  TGI: 7.93 µM
[18]
  GI50: 1.43 µM
  TGI: 2.79 µM
[19]
  GI50: 2.29 µM
  TGI: 5.78 µM
[20]
  GI50: 1.66 µM
  TGI: 3.01 µM
[21]
  GI50: 1.69 µM
  TGI: 3.13 µM
[22]
  GI50: 1.72 µM
  TGI: 3.26 µM
[23]
  GI50: 1.71 µM
  TGI: 3.09 µM
[24]
  GI50: 1.62 µM
  TGI: 3.26 µM
[25]
  GI50: 1.98 µM
  TGI: 4.87 µM
[26]
  GI50: 2.67 µM
  TGI: 9.34 µM
[27]
  GI50: 1.89 µM
  TGI: 3.51 µM
[28]
  GI50: 1.49 µM
  TGI: 3.01 µM
[29]
  GI50: 1.66 µM
  TGI: 3.07 µM
[30]
  GI50: 1.65 µM
  TGI: 3.05 µM
[31]
  GI50: 1.5 µM
  TGI: 3.08 µM
[32]
  GI50: 1.74 µM
  TGI: 3.48 µM
[33]
  GI50: 1.67 µM
  TGI: 5.15 µM
[34]
  GI50: 1.54 µM
  TGI: 2.92 µM
[35]
  GI50: 1.64 µM
  TGI: 3.24 µM
[36]
  GI50: 1.65 µM
  TGI: 5.28 µM
[37]
  GI50: 2.29 µM
  TGI: 5.94 µM
[38]
  GI50: 1.78 µM
  TGI: 3.22 µM
[39]
  GI50: 1.43 µM
  TGI: 2.73 µM
[40]
  GI50: 1.68 µM
  TGI: 3.04 µM
[41]
  GI50: 1.77 µM
  TGI: 3.17 µM
[42]
  GI50: 1.43 µM
  TGI: 2.79 µM
[43]
  GI50: 1.32 µM
  TGI: 3.11 µM
[44]
  GI50: 1.5 µM
  TGI: 2.98 µM
[45]
  GI50: 1.53 µM
  TGI: 3.45 µM
